Assay [1] has as its target T1, Cytochrome P450 1B1 (Homo sapiens, UniProt Q16678).
T1 sequence (Q16678 whole entry): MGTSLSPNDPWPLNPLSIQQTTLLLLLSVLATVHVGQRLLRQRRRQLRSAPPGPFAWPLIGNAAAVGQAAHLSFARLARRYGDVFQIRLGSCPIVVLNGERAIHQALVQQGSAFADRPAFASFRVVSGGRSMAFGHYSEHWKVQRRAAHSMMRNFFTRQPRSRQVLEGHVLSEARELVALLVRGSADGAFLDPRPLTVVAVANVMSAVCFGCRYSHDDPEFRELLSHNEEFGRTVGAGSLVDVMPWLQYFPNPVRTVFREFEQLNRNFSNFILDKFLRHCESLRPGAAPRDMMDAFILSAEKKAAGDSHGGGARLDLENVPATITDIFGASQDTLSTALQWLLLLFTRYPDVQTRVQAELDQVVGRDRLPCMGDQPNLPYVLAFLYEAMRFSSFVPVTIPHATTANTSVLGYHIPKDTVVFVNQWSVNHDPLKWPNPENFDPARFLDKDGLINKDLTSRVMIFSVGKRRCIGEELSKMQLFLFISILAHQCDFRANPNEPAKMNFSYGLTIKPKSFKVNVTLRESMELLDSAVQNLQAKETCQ
The assay is described as follows: Inhibition of human recombinant CYP1B1 using 7-ethoxyresorufin as substrate in presence of glucose-6-phosphate, glucose-6-phosphate dehydrogenase and NADPH-generating system incubated for 35 mins by fluorometry.

Assay [2] addresses T2, Cytochrome P450 1A1 (Homo sapiens, UniProt P04798).
T2 sequence (P04798 whole entry): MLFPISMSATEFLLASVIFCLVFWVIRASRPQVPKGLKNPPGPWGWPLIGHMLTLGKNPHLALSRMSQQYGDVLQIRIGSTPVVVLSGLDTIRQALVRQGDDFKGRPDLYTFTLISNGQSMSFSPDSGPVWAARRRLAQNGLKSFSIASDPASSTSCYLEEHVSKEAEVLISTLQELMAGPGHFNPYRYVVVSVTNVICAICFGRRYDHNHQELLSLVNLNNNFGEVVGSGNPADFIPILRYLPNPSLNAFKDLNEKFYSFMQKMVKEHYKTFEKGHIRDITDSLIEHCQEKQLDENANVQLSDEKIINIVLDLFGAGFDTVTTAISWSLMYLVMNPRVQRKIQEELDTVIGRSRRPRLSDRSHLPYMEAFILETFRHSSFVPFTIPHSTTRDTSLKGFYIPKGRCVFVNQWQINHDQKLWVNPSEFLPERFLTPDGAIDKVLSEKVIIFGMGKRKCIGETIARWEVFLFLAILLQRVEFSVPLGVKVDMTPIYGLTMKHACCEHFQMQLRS
The assay is described as follows: Inhibition of human recombinant CYP1A1 using 7-ethoxyresorufin as substrate in presence of glucose-6-phosphate, glucose-6-phosphate dehydrogenase and NADPH-generating system incubated for 15 mins by fluorometry. The class given is ADME.

Assay [3] deals with T3, Cytochrome P450 1A2 (Homo sapiens, UniProt P05177).
T3 sequence (P05177 whole entry): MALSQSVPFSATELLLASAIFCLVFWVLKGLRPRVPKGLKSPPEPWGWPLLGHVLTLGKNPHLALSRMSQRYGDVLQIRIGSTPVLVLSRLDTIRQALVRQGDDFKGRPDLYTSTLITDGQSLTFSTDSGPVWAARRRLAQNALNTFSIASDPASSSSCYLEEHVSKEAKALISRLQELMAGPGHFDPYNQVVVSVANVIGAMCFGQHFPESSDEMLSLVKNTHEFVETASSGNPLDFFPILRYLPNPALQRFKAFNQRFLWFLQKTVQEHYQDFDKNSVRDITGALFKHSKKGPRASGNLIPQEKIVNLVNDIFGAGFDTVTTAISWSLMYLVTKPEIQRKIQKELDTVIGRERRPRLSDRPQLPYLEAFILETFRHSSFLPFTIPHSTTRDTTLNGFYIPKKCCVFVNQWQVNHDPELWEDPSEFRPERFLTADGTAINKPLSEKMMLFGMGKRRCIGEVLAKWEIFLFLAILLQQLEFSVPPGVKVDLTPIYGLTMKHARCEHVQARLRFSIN
The assay is described as follows: Inhibition of human recombinant CYP1A2 using 7-ethoxyresorufin as substrate in presence of glucose-6-phosphate, glucose-6-phosphate dehydrogenase and NADPH-generating system incubated for 50 mins by fluorometry. The class given is ADME.

For assay [4], the species on record is Homo sapiens. In words: Selectivity index, ratio of IC50 for human recombinant CYP1A1 to IC50 for human recombinant CYP1B1 using 7-ethoxyresorufin as substrate in presence of glucose-6-phosphate, glucose-6-phosphate dehydrogenase and NADPH-generating system by fluorometry.
Assay [5] is filed under the species Homo sapiens. In words: Selectivity index, ratio of IC50 for human recombinant CYP1A2 to IC50 for human recombinant CYP1B1 using 7-ethoxyresorufin as substrate in presence of glucose-6-phosphate, glucose-6-phosphate dehydrogenase and NADPH-generating system by fluorometry.

The record followed here is ChEMBL document CHEMBL4376853, “Synthesis and structure-activity relationship studies of α-naphthoflavone derivatives as CYP1B1 inhibitors” (Eur J Med Chem, 2020).

As to `O=c1cc(-c2cccnc2)oc2c1ccc1ccccc12`, the concentration for half-maximal inhibition (IC50) (usually the point on the concentration scale where inhibition reaches its midpoint) in assay [1] came to 6.2 nM; in assay [2] it was 25.3 nM; in assay [3], 23.2 nM. Also, the values for the Ratio IC50 in assay [4] and in assay [5] were 4.1 and 3.7, respectively.
For `S=c1cc(-c2ccccc2)oc2c1ccc1ccccc12`, the IC50 in assay [1] is 7.8 nM; in assay [2], 65.4 nM; in assay [3], 179 nM. The figures for the Ratio IC50 in assay [4] and in assay [5] were 8.4 and 22.9, respectively.
Taken in the same sequence, the figures for `COc1cc(-c2cc(=S)c3ccc4ccccc4c3o2)cc(OC)c1OC` were 18.8 nM, 28.2 nM, over 1000 nM, 1.5 and over 53.2.
On the same counts, the results for `S=c1cc(-c2cccc(Cl)c2)oc2c1ccc1ccccc12` are 9.4 nM, 31.7 nM, 304 nM, 3.4 and 32.4.
On the same counts, the results for `O=c1cc(-c2cc(Cl)cc(Cl)c2)oc2c1ccc1ccccc12` are 4.2 nM, 25.5 nM, 157 nM, 6.1 and 37.4.
In the case of `O/N=c1\cc(-c2cccc(Cl)c2)oc2c1ccc1ccccc12`, the IC50 in assay [1] was determined as 10.4 nM; in assay [2] it was 94.9 nM; in assay [3] it was 804 nM. The Ratio IC50 in assay [4] is 9.1; in assay [5], 77.3.
For `O=c1cc(-c2cccc(O)c2)oc2c1ccc1ccccc12`, the concentration for half-maximal inhibition (IC50) in assay [1] turned out to be 14.8 nM; in assay [2], 53.1 nM; in assay [3], 91.5 nM. For the same compound, the Ratio IC50 was found to be 3.6 in assay [4] and 6.2 in assay [5].
In the case of `O=c1cc(-c2ccccc2)sc2c1ccc1ccccc12`, the 50% inhibitory concentration (IC50) is 57 nM in assay [1], 32.6 nM in assay [2] and over 1000 nM in assay [3]. In addition, the Ratio IC50 was 0.6 in assay [4] and over 17.5 in assay [5].
With `O/N=c1\cc(-c2ccccc2)oc2c1ccc1ccccc12`, the concentration for half-maximal inhibition (IC50) is 3.2 nM in assay [1], 32.1 nM in assay [2] and 74.6 nM in assay [3]. Moreover, the values for the Ratio IC50 in assay [4] and in assay [5] were 10 and 23.3, respectively.
Take `COc1cccc(-c2cc(=S)c3ccc4ccccc4c3o2)c1`: the IC50 stood at 9.1 nM in assay [1], 72.8 nM in assay [2] and 305 nM in assay [3]. Further, the Ratio IC50 stood at 8 in assay [4] and 33.5 in assay [5].
`O=c1cc(-c2ccc3ccccc3c2)oc2c1ccc1ccccc12`: the half-maximal inhibitory concentration (IC50) in assay [1] is 48.4 nM; in assay [2] it was 46.4 nM; in assay [3], over 1000 nM. In addition, the Ratio IC50 is 1 in assay [4] and over 20.7 in assay [5].
Regarding `O=c1cc(-c2cccc(F)c2)oc2c1ccc1ccccc12`, the IC50 in assay [1] was determined as 2.2 nM; in assay [2] it was 16.7 nM; in assay [3] it was 62.2 nM. Moreover, the results for the Ratio IC50 in assay [4] and in assay [5] were 7.6 and 28.3, respectively.
With `O=c1cc(-c2ccncc2)oc2c1ccc1ccccc12`, the IC50 in assay [1] stood at 9.3 nM; in assay [2], 18.7 nM; in assay [3], 36.4 nM. Also, the Ratio IC50 is 2 in assay [4] and 3.9 in assay [5].
As for `Fc1ccccc1-c1cc(=S)c2ccc3ccccc3c2o1`, the half-inhibitory concentration (IC50) in assay [1] came out at 10.6 nM; in assay [2], 31.9 nM; in assay [3], 51.8 nM. Further, the results for the Ratio IC50 in assay [4] and in assay [5] were 3 and 4.9, respectively.
Consider `COc1cc(Cl)cc(-c2cc(=O)c3ccc4ccccc4c3o2)c1`, for which the half-inhibitory concentration (IC50) in assay [1] is 3.2 nM; in assay [2] it was 164 nM; in assay [3], over 1000 nM. In assay [4], the Ratio IC50 was found to be 51.2.
On to `O=c1cc(-c2ccccc2F)sc2c1ccc1ccccc12`, for which the half-maximal inhibitory concentration (IC50) amounted to 104 nM in assay [1], 84.6 nM in assay [2] and 582 nM in assay [3]. The Ratio IC50 in assay [4] stood at 0.8; in assay [5], 5.6.
Take `O=c1cc(-c2ccc(F)c(F)c2)oc2c1ccc1ccccc12`: the IC50 amounted to 5.6 nM in assay [1], 11.8 nM in assay [2] and 28.6 nM in assay [3]. For the same compound, the Ratio IC50 was 2.1 in assay [4] and 5.1 in assay [5].
Taken in the same sequence, the figures for `COc1ccc(-c2cc(=O)c3ccc4ccccc4c3o2)cc1` were 7.3 nM, 30.9 nM, 98.2 nM, 4.2 and 13.5.
On the same counts, the results for `COc1cccc(-c2cc(=O)c3ccc4ccccc4c3o2)c1` are 3.8 nM, 35.8 nM, 178 nM, 9.4 and 46.8.
`O/N=c1\cc(-c2ccc(Cl)cc2)oc2c1ccc1ccccc12`: the IC50 came to 8 nM in assay [1], 44.4 nM in assay [2] and 75.2 nM in assay [3]. For the same compound, the values for the Ratio IC50 in assay [4] and in assay [5] were 5.6 and 9.4, respectively.
Regarding `O=c1cc(-c2cccc(Cl)c2)sc2c1ccc1ccccc12`, the figures for the concentration for half-maximal inhibition (IC50) in assay [1], in assay [2] and in assay [3] were 40.5 nM, 13.6 nM and 296 nM, respectively. The Ratio IC50 in assay [4] was found to be 0.3; in assay [5] it was 7.3.
In the case of `O=C1C=C(c2ccccc2)S(=O)(=O)c2c1ccc1ccccc21`, the half-maximal inhibitory concentration (IC50) was found to be 223 nM in assay [1], 129 nM in assay [2] and 170 nM in assay [3]. Further, the values for the Ratio IC50 in assay [4] and in assay [5] were 0.6 and 0.8, respectively.
On the same counts, the results for `O=c1cc(-c2ccccc2F)oc2c1ccc1ccccc12` are 3.3 nM, 12.2 nM, 23.7 nM, 3.7 and 7.2.
With `O=C1C=C(c2cccc(Cl)c2)S(=O)(=O)c2c1ccc1ccccc21`, the figures for the IC50 in assay [1], in assay [2] and in assay [3] were 250 nM, over 1000 nM and 699 nM, respectively. Moreover, the Ratio IC50 in assay [4] is over 4; in assay [5], 2.8.
With `O=c1cc(-c2ccccn2)oc2c1ccc1ccccc12`, the half-inhibitory concentration (IC50) in assay [1] is 3.5 nM; in assay [2], 37.9 nM; in assay [3] it was 25.1 nM. In addition, the Ratio IC50 was found to be 10.8 in assay [4] and 7.2 in assay [5].
With `Fc1ccc(-c2cc(=S)c3ccc4ccccc4c3o2)cc1`, the half-maximal inhibitory concentration (IC50) stood at 13.3 nM in assay [1], 12.3 nM in assay [2] and 42.8 nM in assay [3]. For the same compound, the values for the Ratio IC50 in assay [4] and in assay [5] were 0.9 and 3.2, respectively.
On to `O=c1cc(-c2ccccc2Cl)oc2c1ccc1ccccc12`, for which the figures for the IC50 in assay [1], in assay [2] and in assay [3] were 21.6 nM, 228 nM and 113 nM, respectively. Besides, the Ratio IC50 in assay [4] is 10.6; in assay [5], 5.2.
Taken in the same sequence, the figures for `O=c1cc(-c2ccccc2Cl)sc2c1ccc1ccccc12` were 89.7 nM, 45.8 nM, over 1000 nM, 0.5 and over 11.1.
